Values of other authors, collected in PMC7751758, “Repurposing Sigma-1 Receptor Ligands for COVID-19 Therapy?” (Frontiers in Pharmacology, 2020).

System: SARS-CoV
Conditions: mouse, in vivo

CCN(CC)CCCC(C)Nc1ccnc2cc(Cl)ccc12 (stereo not shown) [Chloroquine]
clinical disease: did protect mice from clinical disease | virus replication in lungs: did not inhibit virus replication in lungs

CN(C)CCCN1c2ccccc2Sc2ccc(Cl)cc21 [Chlorpromazine]
clinical disease: did protect mice from clinical disease | virus replication in lungs: did not inhibit virus replication in lungs
